Reference: PubChem BioAssay AID248 (DTP/NCI, 2004)
Toxic doses and inconclusive results are not listed.

System: L1210 leukemia ip in BDF1 mice, survival T/C
Test: NCI In Vivo Anticancer Drug Screen. Data for tumor model L1210 Leukemia (intraperitoneal) in B6D2F1 (BDF1) mice
Conditions: endpoint: mean survival time, higher = longer survival
Outline: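 Mice bearing the transplanted tumor received compound or vehicle. Survival of the treated group was divided by that of the vehicle-treated control group to give the ratio.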

[1] = dose: 100.0 mg/kg/injection, schedule: Q01DX001 (ip), vehicle: saline
[2] = dose: 200.0 mg/kg/injection, schedule: Q01DX001 (ip), vehicle: saline
[3] = dose: 400.0 mg/kg/injection, schedule: Q01DX001 (ip), vehicle: saline
[4] = dose: 50.0 mg/kg/injection, schedule: Q01DX009 (ip), vehicle: Klucel (hydroxypropylcellulose) (HPC)
[5] = dose: 100.0 mg/kg/injection, schedule: Q01DX009 (ip), vehicle: Klucel (hydroxypropylcellulose) (HPC)
[6] = dose: 200.0 mg/kg/injection, schedule: Q01DX009 (ip), vehicle: Klucel (hydroxypropylcellulose) (HPC)
[7] = dose: 100.0 mg/kg/injection, schedule: Q04DX002 (ip), vehicle: Klucel (hydroxypropylcellulose) (HPC)
[8] = dose: 100.0 mg/kg/injection, schedule: Q01DX009 (ip), vehicle: saline
[9] = dose: 100.0 mg/kg/injection, schedule: Q04DX003 (ip), vehicle: saline
[10] = dose: 200.0 mg/kg/injection, schedule: Q04DX003 (ip), vehicle: saline
[11] = dose: 100.0 mg/kg/injection, schedule: Q04DX003 (ip), vehicle: Klucel (hydroxypropylcellulose) (HPC)
[12] = dose: 200.0 mg/kg/injection, schedule: Q04DX003 (ip), vehicle: Klucel (hydroxypropylcellulose) (HPC)
[13] = dose: 400.0 mg/kg/injection, schedule: Q04DX003 (ip), vehicle: Klucel (hydroxypropylcellulose) (HPC)
[14] = dose: 200.0 mg/kg/injection, schedule: Q01DX009 (ip), vehicle: saline
[15] = dose: 400.0 mg/kg/injection, schedule: Q01DX009 (ip), vehicle: Klucel (hydroxypropylcellulose) (HPC)
[16] = dose: 200.0 mg/kg/injection, schedule: Q04DX002 (ip), vehicle: Klucel (hydroxypropylcellulose) (HPC)
[17] = dose: 400.0 mg/kg/injection, schedule: Q04DX002 (ip), vehicle: Klucel (hydroxypropylcellulose) (HPC)

In the case of `NC(=S)N/N=C/c1ccccc1S(=O)(=O)O`, the T/C [1] is reported as 96 % of control, the T/C [2] is reported as 94 % of control and the T/C [3] is reported as 102 % of control.

With `CC1=C(c2ccccc2)C(O)(c2ccccc2)C(C)C1=O` (stereo unspecified) the T/C [4] was 101 % of control, the T/C [5] was 93 % of control and the T/C [6] was 95 % of control.

For `CC(=O)c1cccc2ccccc12`, the T/C (dose: 25.0 mg/kg/injection, schedule: Q04DX002 (ip), vehicle: Klucel (hydroxypropylcellulose) (HPC)) was 103 % of control, the T/C (dose: 50.0 mg/kg/injection, schedule: Q04DX002 (ip), vehicle: Klucel (hydroxypropylcellulose) (HPC)) was 100 % of control and the T/C [7] was 103 % of control.

With `CCCCCC(CC)C(CC)CO` (stereo unspecified) the T/C (dose: 15.0 mg/kg/injection, schedule: Q01DX001 (ip), vehicle: carboxymethylcellulose (CMC)) was 95 % of control, the T/C (dose: 30.0 mg/kg/injection, schedule: Q01DX001 (ip), vehicle: carboxymethylcellulose (CMC)) was 96 % of control and the T/C (dose: 60.0 mg/kg/injection, schedule: Q01DX001 (ip), vehicle: carboxymethylcellulose (CMC)) was 96 % of control.

In the case of `CCOC(=S)SCC(=O)c1cccc([N+](=O)[O-])c1`, the T/C [1] is reported as 107 % of control, the T/C [2] is reported as 103 % of control and the T/C [3] is reported as 101 % of control.

In the case of `O=C(O)C1(O)CCCCC1`, the T/C [1] is reported as 104 % of control, the T/C [8] is reported as 100 % of control and the T/C (dose: 100.0 mg/kg/injection, schedule: Q04DX002 (ip), vehicle: saline) is reported as 104 % of control. For the same compound, the T/C [9] was 98 % of control, the T/C [2] was 110 % of control and the T/C (dose: 200.0 mg/kg/injection, schedule: Q04DX002 (ip), vehicle: saline) was 93 % of control. The T/C [10] was 113 % of control, the T/C [3] was 110 % of control and the T/C (dose: 400.0 mg/kg/injection, schedule: Q04DX003 (ip), vehicle: saline) was 101 % of control.

`O=S(=O)(O)c1ccccc1.O=S(=O)(O)c1ccccc1.[NH-]C1CCCCC1[NH-].[Pt+2]` was tested, and the T/C (dose: 0.5 mg/kg/injection, schedule: Q04DX003 (ip), vehicle: dextrose) was 112 % of control, the T/C (dose: 2.0 mg/kg/injection, schedule: Q04DX003 (ip), vehicle: dextrose) was 154 % of control and the T/C (dose: 4.0 mg/kg/injection, schedule: Q04DX003 (ip), vehicle: dextrose) was 173 % of control. For the same compound, the T/C (dose: 6.0 mg/kg/injection, schedule: Q04DX003 (ip), vehicle: dextrose) was 182 % of control.

In the case of `CCCC(=O)N(CC(C)C)CC(C)C`, the T/C [11] is reported as 101 % of control, the T/C [12] is reported as 95 % of control and the T/C [13] is reported as 97 % of control.

With `CC(=O)NCc1ccccc1` the T/C (dose: 100.0 mg/kg/injection, schedule: Q01DX009 (ip), vehicle: saline with Tween-80) was 97 % of control, the T/C [11] was 95 % of control and the T/C (dose: 200.0 mg/kg/injection, schedule: Q01DX009 (ip), vehicle: saline with Tween-80) was 92 % of control. For the same compound, the T/C [12] was 100 % of control, the T/C (dose: 400.0 mg/kg/injection, schedule: Q01DX009 (ip), vehicle: saline with Tween-80) was 100 % of control and the T/C [13] was 100 % of control.

In the case of `CCC(CC)(COC(=O)c1ccc(N)cc1)C1CCCCC1`, the T/C (dose: 150.0 mg/kg/injection, schedule: Q01DX001 (ip), vehicle: carboxymethylcellulose (CMC)) is reported as 94 % of control.

`CC(C)N=Cc1ccccc1O.CC(C)N=Cc1ccccc1O.[Cu]` was tested, and the T/C (dose: 75.0 mg/kg/injection, schedule: Q01DX001 (ip), vehicle: other) was 113 % of control.

`Cc1ccc(C=C2c3ccccc3-c3ccccc32)cc1` was tested, and the T/C (dose: 12.5 mg/kg/injection, schedule: Q04DX002 (ip), vehicle: gum acacia) was 120 % of control, the T/C (dose: 25.0 mg/kg/injection, schedule: Q04DX002 (ip), vehicle: gum acacia) was 88 % of control and the T/C (dose: 50.0 mg/kg/injection, schedule: Q04DX002 (ip), vehicle: gum acacia) was 98 % of control.

For `CN(C)C1c2cccn2-c2ccccc2S(=O)(=O)C1c1ccccc1[N+](=O)[O-]` (stereo unspecified), the T/C [12] was 98 % of control and the T/C [13] was 96 % of control.

With `[Cl][Co][Cl].[NH-]CCN1CC1` the T/C [9] was 90 % of control.

`CCOC(=O)c1ccc(OC)nc1` was tested, and the T/C [8] was 104 % of control, the T/C [14] was 102 % of control and the T/C (dose: 400.0 mg/kg/injection, schedule: Q01DX009 (ip), vehicle: saline) was 98 % of control.

In the case of `C[N+](C)(C)Cc1c[nH]c2ccsc12`, the T/C (dose: 12.5 mg/kg/injection, schedule: Q01DX001 (ip), vehicle: saline with Tween-80) is reported as 107 % of control.

`CC(C)(C)OC(=O)COc1ccc(NC(=O)COc2ccc(Cl)c(Cl)c2)cc1` was tested, and the T/C (dose: 100.0 mg/kg/injection, schedule: Q01DX001 (ip), vehicle: Klucel (hydroxypropylcellulose) (HPC)) was 101 % of control, the T/C (dose: 200.0 mg/kg/injection, schedule: Q01DX001 (ip), vehicle: Klucel (hydroxypropylcellulose) (HPC)) was 101 % of control and the T/C (dose: 400.0 mg/kg/injection, schedule: Q01DX001 (ip), vehicle: Klucel (hydroxypropylcellulose) (HPC)) was 101 % of control.

With `CCCC(F)C(Br)C(=O)O` (stereo unspecified) the T/C (dose: 100.0 mg/kg/injection, schedule: Q04DX002 (ip), vehicle: other) was 90 % of control, the T/C (dose: 200.0 mg/kg/injection, schedule: Q04DX002 (ip), vehicle: other) was 90 % of control and the T/C (dose: 400.0 mg/kg/injection, schedule: Q04DX002 (ip), vehicle: other) was 90 % of control.

With `CC(=O)Nc1ccc(NC(=O)Nc2ccccc2F)cc1` the T/C [5] was 98 % of control, the T/C [6] was 96 % of control and the T/C [15] was 102 % of control.

`NC(CCCO)Cc1cc2ccccc2c2ccccc12` (stereo unspecified) was tested, and the T/C [1] was 101 % of control, the T/C [2] was 101 % of control and the T/C [3] was 109 % of control.

In the case of `CCCCCCOC(=O)Nc1ccc([N+](=O)[O-])cc1OC`, the T/C [5] is reported as 103 % of control, the T/C [6] is reported as 100 % of control and the T/C [15] is reported as 95 % of control.

`O=C(O)C1(C(=O)O)CC2CC=CCC2C1` (stereo unspecified) was tested, and the T/C (dose: 100.0 mg/kg/injection, schedule: Q01DX001 (ip), vehicle: acetone) was 97 % of control, the T/C (dose: 100.0 mg/kg/injection, schedule: Q04DX003 (ip), vehicle: acetone) was 100 % of control and the T/C (dose: 200.0 mg/kg/injection, schedule: Q01DX001 (ip), vehicle: acetone) was 101 % of control. For the same compound, the T/C (dose: 200.0 mg/kg/injection, schedule: Q04DX003 (ip), vehicle: acetone) was 104 % of control, the T/C (dose: 400.0 mg/kg/injection, schedule: Q01DX001 (ip), vehicle: acetone) was 95 % of control and the T/C (dose: 400.0 mg/kg/injection, schedule: Q04DX003 (ip), vehicle: acetone) was 98 % of control.

For `CN1CCC=C(C(=O)N(c2ccccc2)c2ccccc2)C1`, the T/C (dose: 50.0 mg/kg/injection, schedule: Q01DX009 (ip), vehicle: saline) was 106 % of control, the T/C [8] was 101 % of control and the T/C [9] was 93 % of control. For the same compound, the T/C [14] was 97 % of control and the T/C [10] was 98 % of control.

With `Cc1ccc(C(=O)N/N=C/c2ccc3ccccc3c2)cc1` the T/C [7] was 95 % of control, the T/C [16] was 103 % of control and the T/C [17] was 95 % of control.

`Cc1ccc(C(=O)c2cccc([N+](=O)[O-])c2)cc1` was tested, and the T/C [5] was 104 % of control, the T/C [6] was 103 % of control and the T/C [15] was 98 % of control.

`CC1(C)N=C(N)N=C(N)N1c1cccc(/C=C/c2cccc([N+](=O)[O-])c2)c1` was tested, and the T/C [4] was 102 % of control, the T/C [5] was 90 % of control and the T/C [6] was 106 % of control.

For `O=C1CC(c2ccccc2)=CN1c1ccc2ccccc2c1`, the T/C [7] was 100 % of control, the T/C [16] was 89 % of control and the T/C [17] was 100 % of control.

For `OC1(c2ccccc2)c2ccccc2C(O)(c2ccccc2)c2cc(-c3ccccc3)c(-c3ccccc3)cc21` (stereo unspecified), the T/C [7] was 95 % of control, the T/C [16] was 103 % of control and the T/C [17] was 106 % of control.

`O=C(Nc1ccccc1)Oc1ccc(Cl)cc1` was tested, and the T/C [5] was 97 % of control, the T/C [11] was 107 % of control and the T/C [6] was 102 % of control. For the same compound, the T/C [12] was 96 % of control, the T/C [15] was 103 % of control and the T/C [13] was 113 % of control.

With `CCC(=N\N=C(N)N)/C(C)=N\N=C(N)N` the T/C (dose: 15.0 mg/kg/injection, schedule: Q01DX Z (ip), vehicle: saline) was 93 % of control, the T/C (dose: 30.0 mg/kg/injection, schedule: Q01DX Z (ip), vehicle: saline) was 98 % of control and the T/C (dose: 120.0 mg/kg/injection, schedule: Q01DX Z (ip), vehicle: saline) was 121 % of control.

In the case of `CCOC(=O)C1=NC(c2ccccc2)N(c2ccccc2)C1c1ccccc1` (stereo unspecified), the T/C (dose: 50.0 mg/kg/injection, schedule: Q01DX001 (ip), vehicle: saline) is reported as 100 % of control, the T/C [1] is reported as 100 % of control and the T/C [2] is reported as 100 % of control. The T/C [3] was 103 % of control.

In the case of `O=C(Nc1cc([N+](=O)[O-])ccc1F)Oc1ccccc1F`, the T/C [11] is reported as 102 % of control, the T/C [12] is reported as 94 % of control and the T/C [13] is reported as 98 % of control.
